Data reported in patent US20240115705A1, “Regulation of Butyrophilin subfamily 3 member A1 (BTN3A1, CD277)” (The J. Gladstone Institutes, a testamentary trust …, priority 2021, published 2024).

Test system: Daudi-Cas9 cells
Assay: Cancer-T cell co-culture genome-wide CRISPR knockout screen (Vγ9Vδ2 T cell killing)
Assay type: cell-based, human
Conditions: for score: MAGeCK sgRNA test, co-culture screen; for LFC: log-fold change of sgRNA, surviving cells after co-culture vs baseline; for LFC / treat mean: MAGeCK; for treat mean: sgRNA abundance in surviving Daudi-Cas9 KO cells after 24 hours Vγ9Vδ2 T cell co-culture with zoledronate; for high_in_treatment: sgRNA enriched (TRUE) or depleted (FALSE) after T cell co-culture

Substance | score | LFC | treat mean | high_in_treatment
AARS2_ATCCGCCTACCCCGCTCCA: library sgRNA targeting AARS2 (listed as DNA, chemistry not fully specified) | 6.7194 | −4.9928 | 99.765 | FALSE
ABCF1_AGCATCTCCGCTCATGGCA: library sgRNA targeting ABCF1 (listed as DNA, chemistry not fully specified) | 5.9741 | −2.7126 | 504.57 | FALSE
ACACA_GTTAGAGACGCTATTCCGC: library sgRNA targeting ACACA (listed as DNA, chemistry not fully specified) | 7.4534 | −5.2135 | 104.65 | FALSE
ACAT2_CAAGTGAGTAGAGAAGATC: library sgRNA targeting ACAT2 (listed as DNA, chemistry not fully specified) | 6.1049 | 1.9893 | 1085.8 | TRUE
ACAT2_CAGTCCAGTCAATAGGGAT: library sgRNA targeting ACAT2 (listed as DNA, chemistry not fully specified) | 12.759 | 2.0827 | 4335.4 | TRUE
ALCAM_GTGTGCATGCTAGTAACTG: library sgRNA targeting ALCAM (listed as DNA, chemistry not fully specified) | 6.8519 | 1.5404 | 2462.2 | TRUE
ALG12_TGCGATCACCACTGGCCCG: library sgRNA targeting ALG12 (listed as DNA, chemistry not fully specified) | 6.0622 | −3.0699 | 374.84 | FALSE
ARL14EPL_TTAATAGCAACAAATAGAG: library sgRNA targeting ARL14EPL (listed as DNA, chemistry not fully specified) | 7.215 | 3.9422 | 227.01 | TRUE
BCCIP_AATCTCTTACTGAAGCTGC: library sgRNA targeting BCCIP (listed as DNA, chemistry not fully specified) | 6.3357 | −5.3797 | 64.834 | FALSE
BLQC1S1_ACCAAAGCTTCTGTCAGGC: library sgRNA targeting BLQC-1S1 (listed as DNA, chemistry not fully specified) | 6.0173 | −1.8638 | 1264.6 | FALSE
BTN2A1_AGCCCCTCATTTCAATGAG: library sgRNA targeting BTN2A1 (listed as DNA, chemistry not fully specified) | 7.0382 | 1.7442 | 1965.3 | TRUE
BTN2A1_ATGAGGGGCCATGAAGACG: library sgRNA targeting BTN2A1 (listed as DNA, chemistry not fully specified) | 7.3174 | 2.3876 | 1007.3 | TRUE
BTN2A1_TCTCCATGCCTGATGCAGA: library sgRNA targeting BTN2A1 (listed as DNA, chemistry not fully specified) | 11.104 | 1.6551 | 5566.5 | TRUE
BTN2A1_TCTTGGAAGTAACAGCGGT: library sgRNA targeting BTN2A1 (listed as DNA, chemistry not fully specified) | 18.758 | 2.4492 | 6366.6 | TRUE
